From patent US8815882B2, “Pyrazole aminopyrimidine derivatives as LRRK2 modulators” (Genentech, Inc., priority 2010, dated 2014)

biological target: T1, LRRK2 (Homo sapiens, UniProt Q5S007, G2019S); assay: In Vitro LRRK2 Assay (LabChip 3000, fluorescently-labeled peptide substrate, ATP); format: biochemical; settings: Table 9; LRRK2 Ki (micromolar); read-out: LRRK2 Ki (KI)
T1 construct: purchased Invitrogen PV4882 (lot 567054A)
How it was run: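 Read-out was LabChip capillary electrophoresis, resolving phospho- from non-phospho-peptide by fluorescence intensity. The kinase reaction combined enzyme, ATP, test compound and labeled peptide (4 μM working dilution) for 2 h in darkness before stop solution. Values were reported as Ki, from a tight-binding model with Et, S and Km, or as IC50 or percent inhibition.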

T1 sequence (Q5S007 whole entry G2019S): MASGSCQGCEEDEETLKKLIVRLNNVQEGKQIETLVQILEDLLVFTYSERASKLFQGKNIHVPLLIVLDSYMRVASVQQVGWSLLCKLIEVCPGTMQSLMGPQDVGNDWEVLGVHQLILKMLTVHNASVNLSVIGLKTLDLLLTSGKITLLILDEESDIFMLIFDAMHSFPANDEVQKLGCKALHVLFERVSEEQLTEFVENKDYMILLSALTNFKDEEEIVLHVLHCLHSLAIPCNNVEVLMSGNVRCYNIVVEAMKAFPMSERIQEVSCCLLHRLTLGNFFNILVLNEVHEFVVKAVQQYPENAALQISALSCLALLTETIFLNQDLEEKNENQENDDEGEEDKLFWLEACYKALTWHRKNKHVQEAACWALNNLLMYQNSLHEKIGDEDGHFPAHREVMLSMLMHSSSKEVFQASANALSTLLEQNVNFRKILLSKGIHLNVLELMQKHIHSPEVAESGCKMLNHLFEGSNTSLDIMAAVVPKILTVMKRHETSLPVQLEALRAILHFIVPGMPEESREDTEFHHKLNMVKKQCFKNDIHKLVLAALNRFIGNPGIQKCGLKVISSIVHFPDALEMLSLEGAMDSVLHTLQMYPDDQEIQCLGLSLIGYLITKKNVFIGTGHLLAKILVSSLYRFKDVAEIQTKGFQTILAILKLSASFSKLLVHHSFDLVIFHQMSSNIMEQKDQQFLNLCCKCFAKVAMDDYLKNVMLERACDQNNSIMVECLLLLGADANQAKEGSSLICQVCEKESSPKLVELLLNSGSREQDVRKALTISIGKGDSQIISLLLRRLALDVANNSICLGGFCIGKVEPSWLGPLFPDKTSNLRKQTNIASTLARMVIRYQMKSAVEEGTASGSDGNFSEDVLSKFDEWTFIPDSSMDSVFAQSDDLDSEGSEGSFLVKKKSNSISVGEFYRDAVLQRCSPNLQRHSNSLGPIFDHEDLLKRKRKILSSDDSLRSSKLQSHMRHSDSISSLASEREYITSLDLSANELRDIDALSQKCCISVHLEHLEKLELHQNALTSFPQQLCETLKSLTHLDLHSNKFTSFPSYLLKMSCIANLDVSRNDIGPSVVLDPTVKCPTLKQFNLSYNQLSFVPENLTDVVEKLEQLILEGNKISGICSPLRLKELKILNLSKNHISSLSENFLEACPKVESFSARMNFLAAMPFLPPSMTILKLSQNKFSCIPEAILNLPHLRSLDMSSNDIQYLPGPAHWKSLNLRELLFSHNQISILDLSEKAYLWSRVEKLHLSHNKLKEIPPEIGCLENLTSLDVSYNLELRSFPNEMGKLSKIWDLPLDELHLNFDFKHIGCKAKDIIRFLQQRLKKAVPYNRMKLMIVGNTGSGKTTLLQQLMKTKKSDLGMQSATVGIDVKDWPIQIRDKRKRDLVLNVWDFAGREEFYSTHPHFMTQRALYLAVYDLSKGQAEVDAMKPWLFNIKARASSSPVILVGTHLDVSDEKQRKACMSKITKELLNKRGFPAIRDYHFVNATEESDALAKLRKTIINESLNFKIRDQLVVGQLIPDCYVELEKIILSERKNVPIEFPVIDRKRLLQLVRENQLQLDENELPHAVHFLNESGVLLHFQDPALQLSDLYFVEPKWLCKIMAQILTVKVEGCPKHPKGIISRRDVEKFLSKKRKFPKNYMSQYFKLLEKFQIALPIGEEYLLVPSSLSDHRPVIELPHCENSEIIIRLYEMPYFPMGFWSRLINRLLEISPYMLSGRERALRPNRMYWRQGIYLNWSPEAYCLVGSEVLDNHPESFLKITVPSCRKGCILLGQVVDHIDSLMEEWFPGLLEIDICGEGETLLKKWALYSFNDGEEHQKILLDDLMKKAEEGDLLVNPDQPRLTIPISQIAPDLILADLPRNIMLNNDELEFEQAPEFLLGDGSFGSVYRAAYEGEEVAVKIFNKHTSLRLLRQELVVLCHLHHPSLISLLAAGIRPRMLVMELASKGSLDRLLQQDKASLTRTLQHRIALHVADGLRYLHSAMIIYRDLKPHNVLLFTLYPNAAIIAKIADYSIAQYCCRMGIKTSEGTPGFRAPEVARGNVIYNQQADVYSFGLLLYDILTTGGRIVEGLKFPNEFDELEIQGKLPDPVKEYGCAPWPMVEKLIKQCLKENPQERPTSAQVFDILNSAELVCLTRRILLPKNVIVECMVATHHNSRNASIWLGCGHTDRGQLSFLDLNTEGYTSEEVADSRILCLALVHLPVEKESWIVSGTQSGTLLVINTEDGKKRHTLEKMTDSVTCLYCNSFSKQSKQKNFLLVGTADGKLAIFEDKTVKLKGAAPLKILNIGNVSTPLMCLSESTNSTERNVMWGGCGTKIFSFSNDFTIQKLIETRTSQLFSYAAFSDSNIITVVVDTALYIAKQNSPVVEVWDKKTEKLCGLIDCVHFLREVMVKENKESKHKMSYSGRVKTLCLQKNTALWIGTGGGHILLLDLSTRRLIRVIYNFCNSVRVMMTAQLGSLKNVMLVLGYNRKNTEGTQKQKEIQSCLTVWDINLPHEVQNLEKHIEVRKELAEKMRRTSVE

Compound	Ki [nM]
CNc1nc(Nc2cn(C(C)C)nc2C)ncc1C#N [Example 352, 2-(1-isopropyl-3-methyl-1H-pyrazol-4-ylamino)-4-(methylamino) pyrimidine-5-carbonitrile]	48
CNc1nc(Nc2cn(C(F)F)nc2C)ncc1C#N [Example 365, 2-(1-(difluoromethyl)-3-methyl-1H-pyrazol-4-ylamino)-4-(methylamino) pyrimidine-5-carbonitrile]	35
CNc1nc(Nc2cnn(C(C)C)c2C)ncc1C#N [Example 374, 2-(1-isopropyl-5-methyl-1H-pyrazol-4-ylamino)-4-(methylamino) pyrimidine-5-carbonitrile]	15.8
CNc1nc(Nc2cnn(-c3ccc(F)cc3)c2C)ncc1C#N [Example 386, 2-[1-(4-Fluoro-phenyl)-5-methyl-1H-pyrazol-4-ylamino]-4-methylamino-pyrimidine-5-carbonitrile]	95.9

same assay, conditions: Table 10; LRRK2 Ki (micromolar); read-out: LRRK2 Ki (KI)

Compound	Ki [nM]
CNC(=O)C(C)(C)n1cc(Nc2ncc(C(F)(F)F)c(NC)n2)c(C)n1 [Example 432, N,2-dimethyl-2-(3-methyl-4-(4-(methylamino)-5-(trifluoromethyl)pyrimidin-2-ylamino)-1H-pyrazol-1-yl)propanamide]	18.4
CNc1nc(Nc2cn(C(C)(C)C(=O)OC)nc2C)ncc1C(F)(F)F [Example 408, methyl 2-methyl-2-(3-methyl-4-(4-(methylamino)-5-(trifluoromethyl)pyrimidin-2-ylamino)-1H-pyrazol-1-yl)propanoate]	4.7
CNC(=O)Cn1cc(Nc2ncc(C(F)(F)F)c(NC)n2)c(C)n1 [Example 397, N-methyl-2-(3-methyl-4-(4-(methylamino)-5-(trifluoromethyl)pyrimidin-2-ylamino)-1H-pyrazol-1-yl)acetamide]	9.5
CCNC(=O)C1(n2ncc(Nc3ncc(C(F)(F)F)c(NC)n3)c2C)CCC1 [Example 442, 1-[5-Methyl-4-(4-methylamino-5-trifluoromethyl-pyrimidin-2-ylamino)-pyrazol-1-yl]-cyclobutane-carboxylic acid ethylamide]	15.6

same assay, conditions: read-out: LRRK2 Ki (KI), Table 7

Compound	Ki [nM]
CNc1nc(Nc2cnn(CC(F)(F)F)c2C)ncc1C(F)(F)F [Example 58, N^4-methyl-N^2-(5-methyl-1-(2,2,2-trifluoroethyl)-1H-pyrazol-4-yl)-5-(trifluoromethyl) pyrimidine-2,4-diamine]	3.6
CCNc1nc(Nc2cnn(C3CCN(CC4OCCO4)CC3)c2C)ncc1C(F)(F)F [Example 87, N^2-[1-(1-[1,3]Dioxolan-2-ylmethyl-piperidin-4-yl)-5-methyl-1H-pyrazol-4-yl]-N^4-ethyl-5-trifluoromethyl-pyrimidine-2,4-diamine]	0.8
COc1nc(Nc2cn(C3CCN(CCF)CC3)nc2C)ncc1Cl [Example 86, (5-Chloro-4-methoxy-pyrimidin-2-yl)-{1-[1-(2-fluoro-ethyl)-piperidin-4-yl]-3-methyl-1H-pyrazol-4-yl}-amine]	183
CNc1nc(Nc2cnn(CCN3CCOCC3)c2)ncc1C(F)(F)F [Example 3, N^4-methyl-N^2-(1-(2-morpholinoethyl)-1H-pyrazol-4-yl)-5-(trifluoromethyl) pyrimidine-2,4-diamine]	15
CNc1nc(Nc2ccnn2C)ncc1F [Example 35, 5-Fluoro-N^4-methyl-N^2-(2-methyl-2H-pyrazol-3-yl)-pyrimidine-2,4-diamine]	267
COc1nc(Nc2cnn(C)c2C)ncc1Cl [Example 12, 5-Chloro-N-(1,5-dimethyl-1H-pyrazol-4-yl)-4-methoxy-pyrimidin-2-amine]	9.1

same assay, conditions: read-out: LRRK2 Ki (KI), Table 8

Compound	Ki [nM]
CNc1nc(Nc2cn(-c3ncccn3)nc2C)ncc1C(F)(F)F [Example 128, N4-methyl-N2-(3-methyl-1-(pyrimidin-2-yl)-1H-pyrazol-4-yl)-5-(trifluoromethyl) pyrimidine-2,4-diamine]	11.4
CCNc1nc(Nc2cn(C3COC3)nc2C)ncc1C(F)(F)F [Example 97, N4-ethyl-N2-(3-methyl-1-(oxetan-3-yl)-1H-pyrazol-4-yl)-5-(trifluoromethyl) pyrimidine-2,4-diamine]	1.6
CCNc1nc(Nc2cnn(-c3ccc(C(=O)N(C)C)cc3)c2C)ncc1C(F)(F)F [Example 157, 4-(4-(4-(ethylamino)-5-(trifluoromethyl)pyrimidin-2-ylamino)-5-methyl-1H-pyrazol-1-yl)-N,N-dimethylbenzamide]	0.3
CCNc1nc(Nc2ccn(CC)n2)ncc1C(F)(F)F [Example 186, N4-ethyl-N2-(1-ethyl-1H-pyrazol-3-yl)-5-(trifluoromethyl) pyrimidine-2,4-diamine]	1.9
CNc1nc(Nc2cn(-c3ccc(F)cc3)nc2C)ncc1Br [Example 108, 5-bromo-N2-(1-(4-fluorophenyl)-3-methyl-1H-pyrazol-4-yl)-N4-methylpyrimidine-2,4-diamine]	0.3
CCNc1nc(Nc2cn(S(=O)(=O)CC)nc2C)ncc1C(F)(F)F [Example 243, N4-ethyl-N2-(1-(ethylsulfonyl)-3-methyl-1H-pyrazol-4-yl)-5-(trifluoromethyl) pyrimidine-2,4-diamine]	0.5
CNc1nc(Nc2cn(CC3CC3)nc2C)ncc1C(F)(F)F [Example 166, N2-(1-(cyclopropyl-methyl)-3-methyl-1H-pyrazol-4-yl)-N4-methyl-5-(trifluoromethyl) pyrimidine-2,4-diamine]	4.5
CNc1nc(Nc2cn(Cc3ncccn3)nc2C)ncc1C(F)(F)F [Example 304, N4-Methyl-N2-(3-methyl-1-pyrimidin-2-ylmethyl-1H-pyrazol-4-yl)-5-trifluoromethyl-pyrimidine-2,4-diamine]	5.1
CNc1nc(Nc2cnn(C)c2C#N)ncc1C(F)(F)F [Example 215, 1-methyl-4-(4-(methylamino)-5-(trifluoromethyl)pyrimidin-2-ylamino)-1H-pyrazole-5-carbonitrile]	3.2
CCN1CCC(n2ncc(Nc3ncc(C(F)(F)F)c(NC)n3)c2Cl)C(F)C1 (stereo not shown) [Example 242, N2-(5-chloro-1-(1-ethyl-3-fluoropiperidin-4-yl)-1H-pyrazol-4-yl)-N4-methyl-5-(trifluoromethyl) pyrimidine-2,4-diamine]	2.1
CNc1nc(Nc2cn(CCF)nc2C)ncc1C(F)(F)F [Example 130, N2-(1-(2-fluoroethyl)-3-methyl-1H-pyrazol-4-yl)-N4-methyl-5-(trifluoromethyl) pyrimidine-2,4-diamine]	1.1
CCNc1nc(Nc2cnn(-c3ccc(S(=O)(=O)C4CC4)cc3)c2C)ncc1C(F)(F)F [Example 174, N2-(1-(4-(cyclopropyl-sulfonyl)phenyl)-5-methyl-1H-pyrazol-4-yl)-N4-ethyl-5-(trifluoromethyl) pyrimidine-2,4-diamine]	1.1
CNc1nc(Nc2cnn(-c3ccnc(C)c3)c2C)ncc1C(F)(F)F [Example 142, N4-methyl-N2-(5-methyl-1-(2-methylpyridin-4-yl)-1H-pyrazol-4-yl)-5-(trifluoromethyl) pyrimidine-2,4-diamine]	0.3
CNc1nc(Nc2cnn(C3CCN(CC(F)(F)F)CC3)c2C)ncc1Br [Example 93, 5-bromo-N4-methyl-N2-(5-methyl-1-(1-(2,2,2-trifluoroethyl)piperidin-4-yl)-1H-pyrazol-4-yl)pyrimidine-2,4-diamine]	1.4
